Reference: patent publication US11623919B2, “Heterocyclic P2X7 antagonists” (AXXAM S.P.A., priority 2017, dated 2023)

Legend:
Assay in all cases: Screen Quest Fluo-8 No Wash Calcium Assay (Bz-ATP evoked Ca2+ influx, FLIPR)
Format in all cases: cell-based
[1] = biological target: T1, P2X7 receptor (Mus musculus, UniProt Q9Z1M0); conditions: mP2X7; HEK-293 cells stably transfected with P2X7 receptor, Bz-ATP at EC80, Fluo-8 NW; potency ranges A-D
T1 construct: mP2X7 (IC50; nM); other: mP2X7; HEK-293 cells stably transfected with P2X7 receptor, Bz-ATP at EC80, Fluo-8 NW; potency
T1 sequence (Q9Z1M0 1-595): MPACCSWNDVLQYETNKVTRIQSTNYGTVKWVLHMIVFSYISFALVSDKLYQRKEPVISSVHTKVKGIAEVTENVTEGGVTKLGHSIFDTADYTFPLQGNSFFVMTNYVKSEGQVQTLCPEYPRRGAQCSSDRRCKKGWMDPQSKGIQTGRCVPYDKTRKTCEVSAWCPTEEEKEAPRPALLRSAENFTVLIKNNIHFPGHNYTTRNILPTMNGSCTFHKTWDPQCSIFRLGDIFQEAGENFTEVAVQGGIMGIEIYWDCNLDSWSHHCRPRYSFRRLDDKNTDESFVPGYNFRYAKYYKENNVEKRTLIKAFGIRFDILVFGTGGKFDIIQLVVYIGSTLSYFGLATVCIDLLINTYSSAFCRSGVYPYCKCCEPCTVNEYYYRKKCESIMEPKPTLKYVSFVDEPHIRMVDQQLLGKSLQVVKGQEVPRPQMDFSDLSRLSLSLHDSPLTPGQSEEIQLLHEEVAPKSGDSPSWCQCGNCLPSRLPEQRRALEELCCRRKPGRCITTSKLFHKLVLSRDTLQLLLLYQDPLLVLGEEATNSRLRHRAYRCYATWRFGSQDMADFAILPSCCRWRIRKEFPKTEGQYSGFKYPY
Procedure, shortened: (§1)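 Compounds were added to Fluo-8-loaded P2X7-transfected HEK-293 cells 5 min before an EC80 Bz-ATP challenge, and Ca2+ influx was then recorded for 3 min. Buffer held 0.3 mM Ca2+ and no Mg2+. Inhibition was normalised to A438079, giving IC50 values.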

[2] = biological target: T2, P2X7 receptor (Rattus norvegicus, UniProt Q64663); conditions: rP2X7; HEK-293 cells stably transfected with P2X7 receptor, Bz-ATP at EC80, Fluo-8 NW; potency ranges A-D
T2 construct: rP2X7 (IC50; nM); other: rP2X7; HEK-293 cells stably transfected with P2X7 receptor, Bz-ATP at EC80, Fluo-8 NW; potency
T2 sequence (Q64663 1-595): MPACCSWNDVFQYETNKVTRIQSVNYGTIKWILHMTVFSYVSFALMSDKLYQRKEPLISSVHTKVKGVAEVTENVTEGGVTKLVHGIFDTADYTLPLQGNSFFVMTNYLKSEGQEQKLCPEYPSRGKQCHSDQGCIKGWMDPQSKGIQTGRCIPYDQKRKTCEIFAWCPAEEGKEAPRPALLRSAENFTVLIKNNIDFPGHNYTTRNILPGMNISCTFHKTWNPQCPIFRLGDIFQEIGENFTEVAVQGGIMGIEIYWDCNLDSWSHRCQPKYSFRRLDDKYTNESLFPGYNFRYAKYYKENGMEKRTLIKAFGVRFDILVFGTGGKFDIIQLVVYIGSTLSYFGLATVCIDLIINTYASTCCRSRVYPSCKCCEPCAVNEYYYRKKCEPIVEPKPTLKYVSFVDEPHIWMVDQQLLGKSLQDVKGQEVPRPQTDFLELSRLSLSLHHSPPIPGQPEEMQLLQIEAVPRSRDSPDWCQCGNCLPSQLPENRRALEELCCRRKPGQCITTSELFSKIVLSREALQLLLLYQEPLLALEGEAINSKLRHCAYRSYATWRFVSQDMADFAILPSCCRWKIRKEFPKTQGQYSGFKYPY
Procedure, shortened: as §1

[3] = biological target: T3, P2X7 receptor (Homo sapiens, UniProt Q99572); parameters: hP2X7 (IC50; nM); other: hP2X7; HEK-293 cells stably transfected with P2X7 receptor, Bz-ATP at EC80, Fluo-8 NW; potency; conditions: hP2X7; HEK-293 cells stably transfected with P2X7 receptor, Bz-ATP at EC80, Fluo-8 NW; potency ranges A-D
T3 sequence (Q99572 1-595): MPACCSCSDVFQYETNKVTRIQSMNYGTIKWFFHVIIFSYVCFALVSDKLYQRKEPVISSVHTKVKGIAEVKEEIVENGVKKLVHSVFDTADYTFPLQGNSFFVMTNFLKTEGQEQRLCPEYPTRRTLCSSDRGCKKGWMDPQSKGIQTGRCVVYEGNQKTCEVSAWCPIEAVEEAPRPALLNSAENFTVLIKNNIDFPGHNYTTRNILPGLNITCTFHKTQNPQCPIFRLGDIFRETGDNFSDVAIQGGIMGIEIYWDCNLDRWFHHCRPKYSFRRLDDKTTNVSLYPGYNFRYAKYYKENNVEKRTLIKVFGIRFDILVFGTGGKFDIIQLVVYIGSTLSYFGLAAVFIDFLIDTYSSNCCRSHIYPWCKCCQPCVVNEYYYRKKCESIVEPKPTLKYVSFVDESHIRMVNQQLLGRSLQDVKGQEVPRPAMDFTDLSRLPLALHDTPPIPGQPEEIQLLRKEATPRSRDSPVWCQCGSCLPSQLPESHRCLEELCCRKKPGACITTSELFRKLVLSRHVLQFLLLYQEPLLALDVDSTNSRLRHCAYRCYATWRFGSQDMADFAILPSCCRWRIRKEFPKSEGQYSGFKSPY
Procedure, shortened: as §1

IC50 [1]	IC50 [2]	IC50 [3]	Compound
> 10000 nM	1000 to 10000 nM	1000 to 10000 nM	O=c1onc(Cc2cccc(C(F)(F)F)c2Cl)n1Cc1c(F)cccc1Cl [Example 16, 3-{[2-chloro-3-(trifluoromethyl)phenyl]methyl}-4-[(2-chloro-6-fluorophenyl)methyl]-4,5-dihydro-1,2,4-oxadiazol-5-one]
1000 to 10000 nM	200 to 1000 nM	200 to 1000 nM	O=c1onc(Cc2cccc(F)c2)n1CC1CCC(F)(F)CC1 [Example 151, 4-[(4,4-difluorocyclohexyl)methyl]-3-[(3-fluorophenyl)methyl]-4,5-dihydro-1,2,4-oxadiazol-5-one]
200 to 1000 nM	< 200 nM	< 200 nM	O=c1onc(Cc2ccc(Cl)cc2Cl)n1CC1CCC(F)(F)CC1 [Example 159, 3-[(2,4-dichlorophenyl)methyl]-4-[(4,4-difluorocyclohexyl)methyl]-4,5-dihydro-1,2,4-oxadiazol-5-one]
200 to 1000 nM	< 200 nM	< 200 nM	O=c1onc(CC2CCC(F)(F)CC2)n1Cc1ccccc1Cl [Example 170, 4-[(2-chlorophenyl)methyl]-3-[(4,4-difluorocyclohexyl)methyl]-4,5-dihydro-1,2,4-oxadiazol-5-one]
> 10000 nM	> 10000 nM	> 10000 nM	Cn1ccnc1Cn1c(Cc2c(F)cccc2Cl)noc1=O [Example 47, 3-[(2-chloro-6-fluorophenyl)methyl]-4-[(1-methyl-1H-imidazol-2-yl)methyl]-4,5-dihydro-1,2,4-oxadiazol-5-one]
1000 to 10000 nM	200 to 1000 nM	1000 to 10000 nM	O=c1onc(Cc2cccc(F)c2)n1CC1CCCCC1 [Example 125, 4-(cyclohexylmethyl)-3-[(3-fluorophenyl)methyl]-4,5-dihydro-1,2,4-oxadiazol-5-one]
> 10000 nM	> 10000 nM	> 10000 nM	O=c1onc(Cc2ccncc2)n1Cc1ccc(F)cc1 [Example 79, 4-[(4-fluorophenyl)methyl]-3-(pyridin-4-ylmethyl)-4,5-dihydro-1,2,4-oxadiazol-5-one]
> 10000 nM	1000 to 10000 nM	1000 to 10000 nM	O=c1onc(Cc2c(F)cccc2Cl)n1Cc1ccoc1 [Example 44, 3-[(2-chloro-6-fluorophenyl)methyl]-4-(furan-3-ylmethyl)-4,5-dihydro-1,2,4-oxadiazol-5-one]
200 to 1000 nM	< 200 nM	< 200 nM	O=c1onc(Cc2c(F)cccc2Cl)n1CC1CCC(F)(F)C1 (single isomer, unassigned) [Example 148, 3-(2-chloro-6-fluorobenzyl)-4-[(3,3-difluorocyclopentyl)methyl]-1,2,4-oxadiazol-5(4H)-one]
1000 to 10000 nM	200 to 1000 nM	200 to 1000 nM	O=c1onc(Cc2ccccc2)n1CC1CCC(F)(F)CC1 [Example 161, 3-benzyl-4-[(4,4-difluorocyclohexyl)methyl]-4,5-dihydro-1,2,4-oxadiazol-5-one]
> 10000 nM	> 10000 nM	> 10000 nM	O=c1onc(Cc2c(F)cccc2Cl)n1Cc1cccnc1 [Example 42, 3-[(2-chloro-6-fluorophenyl)methyl]-4-(pyridin-3-ylmethyl)-4,5-dihydro-1,2,4-oxadiazol-5-one]
1000 to 10000 nM	200 to 1000 nM	< 200 nM	Cc1nn(C)c(C)c1Cc1noc(=O)n1CC1CCC(F)(F)CC1 [Example 215, 4-[(4,4-difluorocyclohexyl)methyl]-3-[(trimethyl-1H-pyrazol-4-yl)methyl]-4,5-dihydro-1,2,4-oxadiazol-5-one]
200 to 1000 nM	200 to 1000 nM	1000 to 10000 nM	O=c1onc(Cc2ccc(F)cc2)n1CC1CCCCC1 [Example 12, 4-(cyclohexylmethyl)-3-[(4-fluorophenyl)methyl]-4,5-dihydro-1,2,4-oxadiazol-5-one]
1000 to 10000 nM	200 to 1000 nM	200 to 1000 nM	O=c1onc(Cc2c(F)cccc2Cl)n1CCN1CCCCC1 [Example 143, 3-(2-chloro-6-fluorobenzyl)-4-[2-(piperidin-1-yl)ethyl]-1,2,4-oxadiazol-5(4H)-one]
1000 to 10000 nM	> 10000 nM	> 10000 nM	Cc1ncccc1Cn1c(Cc2c(F)cccc2Cl)noc1=O [Example 24, 3-[(2-chloro-6-fluorophenyl)methyl]-4-[(2-methylpyridin-3-yl)methyl]-4,5-dihydro-1,2,4-oxadiazol-5-one]
> 10000 nM	1000 to 10000 nM	> 10000 nM	CC(c1c(F)cccc1Cl)c1noc(=O)n1CC1CCCCC1 (stereo not drawn) [Example 122, 3-[1-(2-chloro-6-fluorophenyl)ethyl]-4-(cyclohexylmethyl)-4,5-dihydro-1,2,4-oxadiazol-5-one]
1000 to 10000 nM	1000 to 10000 nM	1000 to 10000 nM	O=c1onc(C(O)c2cccc(Cl)c2Cl)n1Cc1c(F)cccc1Cl (stereo not drawn) [Example 138, 4-[(2-chloro-6-fluorophenyl)methyl]-3-[(2,3-dichlorophenyl)(hydroxy)methyl]-4,5-dihydro-1,2,4-oxadiazol-5-one]
1000 to 10000 nM	1000 to 10000 nM	> 10000 nM	O=c1onc(CC2CCCCC2)n1CC1CCCCC1 [Example 129, bis(cyclohexylmethyl)-4,5-dihydro-1,2,4-oxadiazol-5-one]
> 10000 nM	> 10000 nM	> 10000 nM	O=c1onc(Cc2c(F)cccc2Cl)n1CC1CC1 [Example 83, 3-[(2-chloro-6-fluorophenyl)methyl]-4-(cyclopropylmethyl)-4,5-dihydro-1,2,4-oxadiazol-5-one]
1000 to 10000 nM	1000 to 10000 nM	1000 to 10000 nM	O=c1onc(Cc2ccc(Cl)cc2Cl)n1Cc1c(F)cccc1Cl [Example 17, 4-[(2-chloro-6-fluorophenyl)methyl]-3-[(2,4-dichlorophenyl)methyl]-4,5-dihydro-1,2,4-oxadiazol-5-one]
> 10000 nM	1000 to 10000 nM	1000 to 10000 nM	O=c1onc(CCc2c(F)cccc2Cl)n1CC1CCCCC1 [Example 146, 3-[2-(2-chloro-6-fluorophenyl)ethyl]-4-(cyclohexylmethyl)-1,2,4-oxadiazol-5(4H)-one]
> 10000 nM	> 10000 nM	> 10000 nM	Cn1c(Cc2c(F)cccc2Cl)noc1=O [Example 174, 3-[(2-chloro-6-fluorophenyl)methyl]-4-methyl-4,5-dihydro-1,2,4-oxadiazol-5-one]
